Source: patent publication US20230065562A1, “DUAL CONTROLS FOR THERAPEUTIC CELL ACTIVATION OR ELIMINATION” (Bellicum Pharmaceuticals, Inc., priority 2015, published 2023)

Legend:
[1] = system: iCasp9M.IRES.GFPhigh-transduced CTLs in LCL xenograft; assay: SCID mouse-human xenograft model, elimination of iCasp9M-transduced CTLs; format: in vivo, NOD/SCID mice; settings: single dose of CID (50 μg AP20187 i.p.), 3 days after
Description: Non-obese diabetic severe combined immunodeficient (NOD/SCID) mice, 6 to 8 weeks of age, were irradiated (250 rad) and injected subcutaneously in the right flank with 10×10^6 to 15×10^6 LCLs resuspended in Matrigel (BD Bioscience). Two weeks later mice bearing tumors that were approximately 0.5 cm in diameter were injected into the tail vein with a 1:1 mixture of nontransduced and iCasp9.I.GFPhigh-transduced EBV CTLs (total 15×10^6). At 4 to 6 hours prior and 3 days after CTL infusion, mice were injected intraperitoneally with recombinant hIL-2 (2000 U; Proleukin; Chiron). […] By FACS analysis, the number of GFP^+ cells within the gated CD3^+ population was evaluated. […]
The function of iCasp9M also was evaluated in transduced EBV-CTLs in vivo. […] Three days after CID/carrier administration, tumors were analyzed for human CD3^+/GFP^+ cells. […]
The function of iCasp9M in vivo, was assayed. […] On day 3 after CTL administration, mice received either CID (50 µg AP20187; (black diamonds, n=6) or carrier only (black squares, n=5) and on day 6 the presence of human CD3^+/GFP^+ T cells in the tumors was analyzed. Human CD3^+ T cells isolated from the tumors of a control group of mice that received only nontransduced CTLs (15×10^6 CTLs; n=4) were used as a negative control for the analysis of CD3^+/GFP^+ T cells within the tumors.

[2] = system: HPAC PSCA+ tumor cells; assay: T cell anti-tumor assay with HPAC-RFP cells (IncuCyte, ELISA); format: cell-based, human; settings: 10 nM on day 7 of co-culture
Description: PBMCs from donor 920 were activated and co-transduced with GFP-Ffluc and iMC+CARζ-T (189), i9+CARζ+MC (873), or FwtFRBC9/MC.FvFv (1308)-encoding vectors. […] (A & B) Two days post-seeding, culture supernatants were analyzed for IL-2, IL-6, and IFN-γ production by ELISA. […] Numbers of HPAC-RFP and T cell-GFP at the E:T 1:2 ratio was analyzed using the basic analyzer software for the IncuCyte at day 7 (Ci) and day 8 with 0 nM suicide drug (Cii) and 10 nM suicide drug (Ciii). Similar analysis was also performed at the 1:5 E:T ratio (D). (Note: the y-axis in Ci and Di are at log-scale).
The HPAC PSCA^+ tumor cells were stably labeled with nuclear-localized RFP protein using the NucLight™ Red Lentivirus Reagent (Essen Bioscience, 4625). To set up the coculture, 4000 HPAC-RFP cells were seeded per well of 96-well plates in 100 μl of CTL medium without IL-2 for at least 4 hours to allow tumor cells to adhere. After transduction with the appropriate retrovirus and allowed to rest for at least 7 days in culture, T were seeded according to various E:T ratios to the HPAC-RFP-containing 96-well plates. […] Each plate was set up in duplicates, one plate to monitor with the IncuCyte cell imaging system and one plate for supernatant collection for ELISA assay on day 2. The plates were centrifuged for 5 min at 400×g and placed inside the IncuCyte (Essen Bioscience, Dual Color Model 4459) to monitor red fluorescence (and green fluorescence if T cells were labeled with GFP-Ffluc) every 2-3 hours for a total of 7 days at 10× objective. Image analysis was performed using the “HPAC-RFP_TcellsGFP_10×_MLD” processing definition. On day 7, HPAC-RFP cells were analyzed using the “Red Object Count (1/well)” metric. […] On day 8, Tcell-GFP cells were analyzed using the “Total Green Object Integrated Intensity” metric. Each condition was performed at least in duplicates and each well was imaged at 4 different locations.

Structure (SMILES) | reduction in the number of human CD3+/GFP+ T cells versus carrier ([1]; listed as CID) [%] | reduction in the number of human CD3+/GFP+ T cells versus carrier ([1]; listed as dimerizer) | reduction of i9+CARζ+MC T cells [2]
CC[C@H](C(=O)N1CCCC[C@H]1C(=O)O[C@H](CCc1ccc(OC)c(OC)c1)c1cccc(OCC(=O)NCC(CNC(=O)COc2cccc([C@@H](CCc3ccc(OC)c(OC)c3)OC(=O)[C@@H]3CCCCN3C(=O)[C@@H](CC)c3cc(OC)c(OC)c(OC)c3)c2)CN(C)C)c1)c1cc(OC)c(OC)c(OC)c1 [AP20187] | > 99 | more than 99% | –
CC[C@H](C(=O)N1CCCC[C@H]1C(=O)O[C@H](CCc1ccc(OC)c(OC)c1)c1cccc(OCC(=O)NCCNC(=O)COc2cccc([C@@H](CCc3ccc(OC)c(OC)c3)OC(=O)[C@@H]3CCCCN3C(=O)[C@@H](CC)c3cc(OC)c(OC)c(OC)c3)c2)c1)c1cc(OC)c(OC)c(OC)c1 [rimiducid] | – | – | approximately 50%
